Test results published in patent US20080318792A1, “Extension of pollination period” (priority 2007, published 2008).

Columns and labels:
[1] = system: commercial inbred sorghum lines; assay: Soil emergence of sorghum inbreds after ABA seed treatment; type: in vivo; settings: for Emergence / Median time to emergence / Quartile range: soil 20/30° C.
Protocol: Seed of four commercial inbred sorghum lines were obtained from a genetics supplier. These inbreds are representative of many male parents used in hybrid sorghum seed production. ABA in the form of the free acid was applied at rates of 0, 10, 25, 50 and 100 g/cwt. Application was performed as described under Example 2 above, except the Maxim XL (Syngenta) was applied at 0.334 oz/cwt, Allegiance FL (Bayer), was applied at 0.75 oz/cwt, and Thiram 42-S (Bayer) was applied at 3.5 oz/cwt, using a slurry rate of 25 oz/cwt. The seed was planted in soil in plastic boxes as described under Example 2, except at a depth of 2 cm., and incubated at 20/30° C. (AOSA Rules for Testing Seeds, 2005). Emergence was counted every 1-3 days and the data reduced as described under Example 2.

[2] = system: sweet corn seed (cv. Silver Queen); assay: Germination of sweet corn seed on moist blotters at 15° C. after seed treatment; type: in vivo; settings: blotters 15° C.; for Coleoptile protrusion CGERM / Radicle protrusion RGERM: maximum by day 27
Protocol: ABA acid and three analogs were dissolved in ethanol to produce the desired doses. […] Aliquotes (250 μl) of ethanol solutions of the agents were added to 10 g samples of the seed and the seeds were agitated and dried overnight. Germination tests were conducted on moist blotters at 15° C. in petri dishes. Four replications of 10 seeds each were performed.
Radicle and coleoptile protrusion were counted approximately daily for 27 days. The maximum radical protrusion (RGERM) and maximum coleoptile protrusion (CGERM) were expressed as percentages from each dish. The daily counts were expressed as proportions of the protrusion maxima from each dish, and Gompertz curves were fitted to the protrusion data using SAS Proc NLIN. From the parameters of the models, median time to radicle protrusion (RT50), and median-time-to-coleoptile protrusion (CT50) were estimated for each dish. Analysis of variance was performed and means calculated for each of the four responses (RGERM, CGERM, RT50 and CT50).

[3] = sorghum inbred 43, ABA 10 g/cwt
[4] = sorghum inbred 43, ABA 25 g/cwt
[5] = sorghum inbred 43, ABA 50 g/cwt
[6] = sorghum inbred 43, ABA 100 g/cwt
[7] = sorghum inbred 44, ABA 10 g/cwt
[8] = sorghum inbred 44, ABA 25 g/cwt
[9] = sorghum inbred 44, ABA 50 g/cwt
[10] = sorghum inbred 44, ABA 100 g/cwt
[11] = sorghum inbred 45, ABA 10 g/cwt
[12] = sorghum inbred 45, ABA 25 g/cwt
[13] = sorghum inbred 45, ABA 50 g/cwt
[14] = sorghum inbred 45, ABA 100 g/cwt
[15] = sorghum inbred 46, ABA 10 g/cwt
[16] = sorghum inbred 46, ABA 25 g/cwt
[17] = sorghum inbred 46, ABA 50 g/cwt
[18] = sorghum inbred 46, ABA 100 g/cwt

For `CC1=CC(=O)CC(C)(C)[C@@]1(O)/C=C/C(C)=C\C(=O)O` [ABA, S-(+)-abscisic acid], the “effect on emergence of sorghum inbreds” value ([1]; ABA 10-100 g/cwt) was “progressively and significantly delayed emergence”, the Emergence [1, 3] was 94.0% and the “Median time to emergence” value [1, 3] was 5.1 days. For the same compound, the Quartile range [1, 3] was 1.5 days, the Emergence [1, 4] was 94.2% and the “Median time to emergence” value [1, 4] was 6.3 days. The Quartile range [1, 4] was 2.2 days, the Emergence [1, 5] was 87.2% and the “Median time to emergence” value [1, 5] was 8.6 days. For the same compound, the Quartile range [1, 5] was 3.7 days, the Emergence [1, 6] was 87.9% and the “Median time to emergence” value [1, 6] was 11.3 days. For the same compound, the Quartile range [1, 6] was 4.8 days, the Emergence [1, 7] was 79.0% and the “Median time to emergence” value [1, 7] was 5.7 days. For the same compound, the Quartile range [1, 7] was 2.6 days, the Emergence [1, 8] was 73.2% and the “Median time to emergence” value [1, 8] was 8.4 days. The Quartile range [1, 8] was 3.2 days, the Emergence [1, 9] was 71.3% and the “Median time to emergence” value [1, 9] was 10.7 days. For the same compound, the Quartile range [1, 9] was 4.6 days, the Emergence [1, 10] was 49.0% and the “Median time to emergence” value [1, 10] was 14.4 days. The Quartile range [1, 10] was 4.7 days, the Emergence [1, 11] was 81.3% and the “Median time to emergence” value [1, 11] was 5.4 days. For the same compound, the Quartile range [1, 11] was 1.5 days, the Emergence [1, 12] was 77.1% and the “Median time to emergence” value [1, 12] was 7.3 days. The Quartile range [1, 12] was 3.1 days, the Emergence [1, 13] was 54.1% and the “Median time to emergence” value [1, 13] was 10.6 days. For the same compound, the Quartile range [1, 13] was 3.5 days, the Emergence [1, 14] was 25.0% and the “Median time to emergence” value [1, 14] was 14.9 days. For the same compound, the Quartile range [1, 14] was 6.7 days, the Emergence [1, 15] was 89.2% and the “Median time to emergence” value [1, 15] was 5.7 days. For the same compound, the Quartile range [1, 15] was 2.6 days, the Emergence [1, 16] was 86.1% and the “Median time to emergence” value [1, 16] was 7.0 days. For the same compound, the Quartile range [1, 16] was 3.0 days, the Emergence [1, 17] was 86.2% and the “Median time to emergence” value [1, 17] was 8.8 days. The Quartile range [1, 17] was 3.9 days, the Emergence [1, 18] was 75.1% and the “Median time to emergence” value [1, 18] was 11.4 days. The Quartile range [1, 18] was 5.0 days, the “Coleoptile protrusion CT50” value ([2]; dose 10 ppm) was 9.70 days and the “Radicle protrusion RT50” value ([2]; dose 10 ppm) was 5.99 days. For the same compound, the “Coleoptile protrusion CGERM” value ([2]; dose 10 ppm) was 80.0%, the “Radicle protrusion RGERM” value ([2]; dose 10 ppm) was 87.5% and the “Coleoptile protrusion CT50” value ([2]; dose 100 ppm) was 12.80 days. The “Radicle protrusion RT50” value ([2]; dose 100 ppm) was 7.28 days, the “Coleoptile protrusion CGERM” value ([2]; dose 100 ppm) was 65.0% and the “Radicle protrusion RGERM” value ([2]; dose 100 ppm) was 77.5%. The “Coleoptile protrusion CT50” value ([2]; dose 1000 ppm) was 18.44 days, the “Radicle protrusion RT50” value ([2]; dose 1000 ppm) was 8.58 days and the “Coleoptile protrusion CGERM” value ([2]; dose 1000 ppm) was 22.5%. For the same compound, the “Radicle protrusion RGERM” value ([2]; dose 1000 ppm) was 85.0%.
